Data: US20030083239A1, “Chemokine receptor CCR3 antagonists” (priority 1999, published 2003)
Where two headings read alike, the source gives them in different places. Blank lines part the entries; values can stand above or below the molecule they belong to. Ends that are not written are not given here. Peptide text beside a SMILES is read from it.

What was measured:
human eosinophils [1] = format: cell-based
Experimental: Human eosinophils were prepared by isolation from the blood of donor individuals with high levels of circulating blood eosinophils (5-17%) by combining density gradient centrifugation and negative selection with anti-CD16 magnetic beads. Briefly, the granulocyte fraction from the Percoll centrifugation was incubated with CD16 micro beads (miniMACS™, separation unit) for 30 minutes. Cells were then passed through a MACS™ column (Miltenyi Biotec, Inc., Auburn, Calif.) and eosinophils were collected in the flow through. Eosinophil purity was >98% as determined by analysis of Diff-Quik™ (Baxter) stained cytocentrifugation preparations by light microscopy. Intracellular free calcium was measured using the fluorescent probe Fluo-3. Cell suspensions (10^7 cells/ml) were loaded with Fluo-3/AM (1 μM, 30 minutes at 37° C), washed, resuspended at 2×10^6 cells/ml in Hanks' balanced salt solution (HBSS) and their fluorescence monitored in a spectrofluorometer (SLM 8000, SLM-Aminco, Champagne, Ill., USA) (excitation and emission wavelengths, 500 and 530 nm, respectively) The internal calcium concentrations were calculated as described in Tsien et al. (J. Cell. Biol. 94: 3325-3334, 1982). Each assay was individually calibrated.

human eosinophils [2] = format: cell-based; remark: listed apart in the source
Experimental: Human eosinophils were prepared by isolation from the blood of donor individuals with high levels of circulating blood eosinophils (5-17%) by combining density gradient centrifugation and negative selection with anti-CD16 magnetic beads. Briefly, the granulocyte fraction from the Percoll centrifugation was incubated with CD16 micro beads (miniMACS™, separation unit) for 30 minutes. Cells were then passed through a MACS™ column (Miltenyi Biotec, Inc., Auburn, Calif.) and eosinophils were collected in the flow through. Eosinophil purity was >98% as determined by analysis of Diff-Quik™ (Baxter) stained cytocentrifugation preparations by light microscopy. Leukocyte chemotaxis was assessed on eosinophils, using a modification of a transendothelial assay. The endothelial cells used in this assay were the endothelial cell line, ECV 304, obtained from the European collection of Animal Cell Cultures (Porton Downs, Salisbury, U.K.). Endothelial cells were cultured on 6.5 mm diameter Transwell™ culture inserts (Costar Corp., Cambridge, Mass.) with 3.0 μm pore size. The assay media consisted of equal parts RPMI 1640 and M199 with 0.5% BSA. […] The cells that had migrated to the bottom chamber were counted using flow cytometry. […] Inhibitor potency was determined by comparison of cell numbers migrated to the bottom chamber, with or without inhibitor. […]

CCR3 = target: T1, CCR3 (Homo sapiens, UniProt P51677); experiment: Binding specificity, CCR3 transfected in 293 cells; conditions: CCR3 transfected 293 cells; peptide at 10 μM (FIG. 4 legend)
T1 construct: expressed in transfected cells; host or cells: 293 cells
T1 sequence (P51677 1-355): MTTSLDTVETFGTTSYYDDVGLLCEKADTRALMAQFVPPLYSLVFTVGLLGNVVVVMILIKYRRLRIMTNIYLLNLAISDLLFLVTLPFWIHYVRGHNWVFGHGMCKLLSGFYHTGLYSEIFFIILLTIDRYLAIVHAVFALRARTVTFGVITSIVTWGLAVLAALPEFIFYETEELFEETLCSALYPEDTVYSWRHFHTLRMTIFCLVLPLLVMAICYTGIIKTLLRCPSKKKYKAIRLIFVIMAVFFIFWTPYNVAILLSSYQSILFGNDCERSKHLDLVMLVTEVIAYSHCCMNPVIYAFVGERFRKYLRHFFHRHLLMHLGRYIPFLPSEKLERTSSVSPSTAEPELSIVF
Experimental: (§1) Chemokine binding to the target cells, human eosinophils and 293/CCR3 cells, was carried out using a modification of a method previously reported. Cells were washed once in PBS and resuspended in binding buffer (50 mM HEPES, 1 mM CaCl2, 5 mM MgCl2, and 0.5% BSA) at a concentration of 1×10^7/mL. Aliquots of 50 μL (5×10^5 cells) were dispensed into microfuge tubes, followed by the addition of cold and radiolabeled chemokines. The final reaction volume was 200 μL. Nonspecific binding was determined by incubating cells with radiolabeled chemokines in the presence of increasing amounts of (250-500 nM) of cold chemokine. After 60-min incubation, at room temperature, the cells were washed three times with 1 ml of binding buffer plus 0.5 M NaCl. Cell pellets were then counted. All experiments were carried out using duplicates and repeated at least three times. Curve fit was calculated by Kaleidagraph™ software (Synergy Software, Reading, Pa.). Inhibition of binding was assessed by the addition of test inhibitor compound at the indicated concentrations, and incubation for 30 min prior to addition of the chemokine as above.
(§2) The compound was used in the binding assay to compete with CXCR4, CXCR2, CCR2, and CCR3 transfected in 293 cells. […] The data are representative of three independent experiments.

CCR2 = target: T2, CCR2 (Homo sapiens, UniProt P41597); experiment: Binding specificity, CCR2 transfected in 293 cells; conditions: CCR2 transfected 293 cells; peptide at 10 μM (FIG. 4 legend)
T2 construct: expressed in transfected cells; host or cells: 293 cells
T2 sequence (P41597 whole entry, species assumed): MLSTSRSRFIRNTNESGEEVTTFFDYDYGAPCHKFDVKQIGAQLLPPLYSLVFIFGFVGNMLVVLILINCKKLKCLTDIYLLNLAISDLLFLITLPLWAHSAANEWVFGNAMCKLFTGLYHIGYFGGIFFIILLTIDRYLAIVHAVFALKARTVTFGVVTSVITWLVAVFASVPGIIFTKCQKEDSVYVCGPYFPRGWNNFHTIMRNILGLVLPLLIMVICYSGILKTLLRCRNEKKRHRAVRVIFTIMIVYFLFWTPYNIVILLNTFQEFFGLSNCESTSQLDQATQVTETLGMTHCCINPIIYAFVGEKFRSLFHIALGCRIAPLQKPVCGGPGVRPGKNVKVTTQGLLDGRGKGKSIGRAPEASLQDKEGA
Experimental: as §1, §2

CXCR2 = target: T3, CXCR2 (Homo sapiens, UniProt P25025); experiment: Binding specificity, CXCR2 transfected in 293 cells; conditions: CXCR2 transfected 293 cells; peptide at 10 μM (FIG. 4 legend)
T3 construct: expressed in transfected cells; host or cells: 293 cells
T3 sequence (P25025 1-360): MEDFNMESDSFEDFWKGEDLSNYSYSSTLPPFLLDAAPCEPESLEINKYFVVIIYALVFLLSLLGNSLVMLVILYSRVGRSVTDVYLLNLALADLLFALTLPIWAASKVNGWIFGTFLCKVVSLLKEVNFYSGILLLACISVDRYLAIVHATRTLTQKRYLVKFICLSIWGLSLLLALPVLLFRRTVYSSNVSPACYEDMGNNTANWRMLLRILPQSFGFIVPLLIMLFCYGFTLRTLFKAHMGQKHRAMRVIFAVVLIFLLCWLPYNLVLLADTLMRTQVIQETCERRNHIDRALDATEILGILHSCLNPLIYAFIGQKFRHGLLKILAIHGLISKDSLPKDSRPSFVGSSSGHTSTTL
Experimental: as §1, §2

CXCR4 = target: T4, CXCR4 (Homo sapiens, UniProt P61073); experiment: Binding specificity, CXCR4 transfected in 293 cells; conditions: CXCR4 transfected 293 cells; peptide at 10 μM (FIG. 4 legend)
T4 construct: expressed in transfected cells; host or cells: 293 cells
T4 sequence (P61073 whole entry, species assumed): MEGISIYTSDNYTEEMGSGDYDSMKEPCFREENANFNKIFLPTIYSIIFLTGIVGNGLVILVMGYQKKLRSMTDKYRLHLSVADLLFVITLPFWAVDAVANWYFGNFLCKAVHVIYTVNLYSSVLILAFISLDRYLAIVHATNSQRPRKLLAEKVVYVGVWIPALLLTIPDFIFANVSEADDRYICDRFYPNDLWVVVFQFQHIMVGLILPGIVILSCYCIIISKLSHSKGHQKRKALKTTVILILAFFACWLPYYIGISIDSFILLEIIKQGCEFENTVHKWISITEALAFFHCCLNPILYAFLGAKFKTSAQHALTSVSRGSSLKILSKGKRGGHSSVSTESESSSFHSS
Experimental: as §1, §2

human eosinophils [3] = experiment: Cytotoxicity, lysis of 51Cr-labeled cells; format: cell-based; conditions: cells cultured in presence of the peptide
Experimental: To exclude the possible contribution of cytotoxicity of the hexapeptides to the inhibition of eosinophil function, ^51Cr-labeled cells were cultured in presence of the peptide for the indicated time.

human eosinophils [4] = format: cell-based; remark: listed apart in the source
human eosinophils [5] = experiment: Cell viability by MTT incorporation; format: cell-based; conditions: after 24 hours
Experimental: In FIG. 5, cell viability in presence of SC004411 was assayed with MTT incorporation. […] The data are representative of three independent experiments.

[6] = target: T5, CCR3 on human eosinophils (human, UniProt P51677 1-355); experiment: cell-based or functional assay
T5 sequence (looked up): T1 sequence (P51677 1-355)

[7] = target: T5, CCR3 on human eosinophils; experiment: competition with 125I-eotaxin (0.3 nM) for CCR3 on human eosinophils, filtration radioligand assay

IC50 (human eosinophils [1]): ~40 µM
IC50 (human eosinophils [2]): ~20 µM
inhibition of eotaxin-binding to CCR3 (CCR3): specifically inhibited
inhibition of binding to CCR2 (CCR2): not
inhibition of binding to CXCR2 (CXCR2): not
inhibition of binding to CXCR4 (CXCR4): not
Molecule: CC(=O)N[C@@H](CS)C(=O)N[C@@H](CCCNC(=N)N)C(=O)N[C@@H](CS)C(=O)N[C@@H](C)C(=O)N[C@@H](C)C(=O)N[C@@H](CCCNC(=N)N)C(N)=O [SC004411, CRCAAR] (Ac-CRCAAR-NH2; N-terminus and C-terminus assumed)
cell lysis of 51Cr-labeled human eosinophils (human eosinophils [3]): did not cause cell lysis
toxicity by Trypan Blue exclusion (human eosinophils [4]): not toxic
concentration at which the compound starts to be toxic (MTT viability) (human eosinophils [5]): above 100 μM

inhibition of eotaxin-induced calcium mobilization of human eosinophils (functional IC50) [6]: ~40 µM
inhibition of eotaxin-induced chemotaxis of human eosinophils (functional IC50) [6]: ~20 µM
IC50 [7]: ~40 µM
B1: hexamer peptide CRCAAR (SEQ ID NO: 1), peptide SC004411 (peptide)
peptide: CRCAAR
modifications: not fully specified; cysteine pairing not given here
notes: Synthetic hexapeptide; also called compound SC004411
